Source: paper PMC8230474, “Synthesis of Novel Acyl Derivatives of 3-(4,5,6,7-Tetrabromo-1H-benzimidazol-1-yl)propan-1-ols—Intracellular TBBi-Based CK2 Inhibitors with Proapoptotic Properties” (International Journal of Molecular Sciences, 2021)
Where two headings read alike, the source gives them in different places.

Columns and labels:
MCF-7 cells = experiment: Cleaved PARP1 Western blot, MCF-7; format: cell-based, human; settings: MCF-7, 72 h treatment, compound at its EC50
Protocol: In order to evaluate the proapoptotic properties of the newly synthesized derivatives, we analyzed the level of cleaved PARP1 [c-PARP1, nuclear poly (ADP-ribose) polymerase 1], the hallmark of apoptotic cells.
Considering the lack of significant effect of the tested compounds in MCF-7 cells after 24-h treatment, we additionally evaluated c-PARP1 level in this cell line after 72 h of treatment. […] It should be noted that the highest level of c-PARP up to almost 20-fold higher than in the control was detected in the cell culture treated with a derivative 6b.
The MCF-7 cells growing exponentially were seeded at 4.8 × 10^5 cells in 6-cm-diameter plates. Subsequently, compounds were added in a final concentration of 0.5% DMSO. […] The protein concentration was determined using Bradford assay. […] Equal amounts of total protein (10 to 20 μg) were analyzed by SDS-PAGE, and subsequently, Western blotting was performed using primary antibodies in blocking buffer containing either 3% BSA (bovine serum albumin) or 3% milk in TBS-T (Tris-buffered saline (10 mM Tris-HCl (pH 8), 150 mM NaCl) containing 0.1% Tween 20 or 0.2% Triton X-100) for 1 h. […]
(§1) For densitometry, immunoblots were quantified using the Fiji distribution of the ImageJ 1.52a software (National Institutes of Health, Bethesda, MD, USA, and the University of Wisconsin, Madison, WI, USA). […]

[1] = test system: protein kinase CK2 in MCF-7 cells; experiment: Intracellular inhibition of CK2, Western blot of p-Ser529 p65 and p-Ser129 Akt1, MCF-7; format: cell-based, human
Excerpt: (§2) We observed an inhibition of CK2 in both cell lines; however, the lower efficiency of CK2 inhibition was detected in MCF-7 considering the extent of Akt1 phosphorylation. The relative level of the phosphorylation of the tested proteins in MDA-MB-231 cells was in the range of 0.32 to 0.80 for p-Ser529 p65 and 0.41 to 0.73 for p-Ser129 Akt1, whereas in MCF-7 cells it was in the range of 0.33 to 0.78 for p-Ser529 p65 and 0.82 to 1.23 for p-Ser129 Akt1, respectively. The lowest phosphorylation levels of the tested proteins were detected in MDA-MB-231 cells for compound 6b with the relative level of 0.41 for Ser129 Akt1 as well as for compound 6c with the relative level of 0.32 for p-Ser529 p65. Among the tested proteins, the lowest extent of phosphorylation in MCF-7 cells was detected for 6b with the relative level of 0.33 for p-Ser529 p65, and for 6a with the relative level of 0.82 for Ser129 Akt1.
Considering an inefficient inhibition of CK2 in MCF-7, we evaluated an inhibition of CK2 in this cell line after 72 h. […] The relative levels were in the range of 0.17 to 0.8 for p-Ser529 p65 and 0.19 to 0.79 for p-Ser129 Akt1.
The MCF-7 cells growing exponentially were seeded at 4.8 × 10^5 cells in 6-cm-diameter plates. Subsequently, compounds were added in a final concentration of 0.5% DMSO. After incubation, floating cells were collected and cell monolayer was washed three times in ice-cold PBS and the cells were scraped, combined with floating cells and lysed in RIPA buffer consisting of 50 mM Tris-HCl (pH 7.4), 1% NP-40, 0.5% sodium deoxycholate, 0.1% SDS, 150 mM NaCl, 2 mM EDTA, 50 mM NaF, 0.2 mM sodium orthovanadate, and protease inhibitors cocktail. Subsequently, cells were sonicated (three times for 15 s), centrifuged at 20,000× g for 15 min at 4 °C, and the supernatants were collected and stored at −80 °C. The protein concentration was determined using Bradford assay. Then, supernatants were incubated with the Laemmli buffer for 5 min at 98 °C. Equal amounts of total protein (10 to 20 μg) were analyzed by SDS-PAGE, and subsequently, Western blotting was performed using primary antibodies in blocking buffer containing either 3% BSA (bovine serum albumin) or 3% milk in TBS-T (Tris-buffered saline (10 mM Tris-HCl (pH 8), 150 mM NaCl) containing 0.1% Tween 20 or 0.2% Triton X-100) for 1 h. After overnight incubation at 4 °C with the primary antibodies, the membranes were washed with TBS-T and probed with the respective secondary antibodies. The ECL substrate was used for detection and immunoblots were scanned using G Box Chemi (Syngene, Cambridge, UK) with GeneSys software (Syngene, Cambridge, UK) or were developed with the use of X-rays films. UV-irradiated Jurkat cells were used as a positive control in Western blot analysis of c-PARP1. After 2 h, one-minute UV-irradiated Jurkat leukemic T-cell line was lysed and subjected to analysis.
For densitometry, immunoblots were quantified using the Fiji distribution of the ImageJ 1.52a software (National Institutes of Health, Bethesda, MD, USA, and the University of Wisconsin, Madison, WI, USA). Phosphorylated protein densities were normalized to GAPDH densities, assuming 1 for untreated cells and then they were converted to a percent of the appropriate control.

MDA-MB-231 cells = experiment: MTT viability assay, MDA-MB-231; format: cell-based; settings: Homo sapiens, read-out: EC50 ± SD MDA-MB-231
Protocol: To test the anti-cancer effect of the TBBi derivatives, we treated the MCF-7 and MDA-MB-231 cells with the newly synthesized esters and previously reported compounds [34, 57] at the concentration range of 3.125 to 200 µM for 24 h, 48 h and 72 h. Additionally, the range of concentrations was extended by additional lower concentrations in MCF-7 for compound 4 with the minimum concentration of 0.195 µM. […] The EC50 values, describing the half maximal effective concentration of each tested compound, were calculated and are summarized in Table 2. […] We observed that the EC50 values increase in both cell lines with the elongation of fatty acids chain length in the tested compounds, thus strongly correlating with the decrease of their solubility in biological media as characterized by logS parameter (Table 2). The second reason for the decreased biological activity of the longer-chain aliphatic esters might be attributed to their greater resistance toward intracellular hydrolysis, which directly influences the slower release of the active form of the corresponding CK2 inhibitors. […] However, none of the tested compounds, except for compound 5, decreased the viability of both cell lines in a time-dependent manner (Figure 4).
MCF-7 and MDA-MB-231 were cultured in high-glucose Dulbecco’s modified Eagle medium (DMEM, Lonza, Basel, Switzerland) supplemented with 10% fetal bovine serum (FBS, EuroClone, Siziano, Italy)), 2 mM L-glutamine, and antibiotics (100 U/mL penicillin, 100 µg/mL streptomycin) (Sigma-Aldrich Chemical Company (St. Louis, MO, USA). Cells were grown in 75-cm^2 cell culture flasks (Sarstedt, Nümbrecht, Germany) in a humidified atmosphere of CO2/air (5%/95%) at 37 °C. All the experiments were performed in exponentially growing cultures. Stock solutions of the test compounds were prepared in DMSO and stored in −80 °C for a maximum of one month. For the cytotoxicity studies, stock solutions of the tested compounds were diluted 200-fold with the proper culture medium to obtain the final concentrations.
After incubation with the tested compounds, an MTT test was performed as described previously. Optical densities were measured at 570 nm using BioTek microplate reader (Winooski, VT, USA). All measurements were carried out in a minimum of three biological replicates.

[2] = test system: protein kinase CK2 in MDA-MB-231 cells; experiment: Intracellular inhibition of CK2, Western blot of p-Ser529 p65 and p-Ser129 Akt1, MDA-MB-231; format: cell-based, human; settings: MDA-MB-231, 24 h treatment, compound at its 72-h EC50, relative to untreated control
Excerpt: as §2
The MCF-7 cells growing exponentially were seeded at 4.8 × 10^5 cells in 6-cm-diameter plates. Subsequently, compounds were added in a final concentration of 0.5% DMSO. […] The protein concentration was determined using Bradford assay. […]
as §1

[3] = MCF-7, 72 h treatment, compound at its EC50, relative to untreated control

EC50 (MDA-MB-231 cells; 24 h) [µM] | EC50 (MDA-MB-231 cells; 48 h) [µM] | EC50 (MDA-MB-231 cells; 72 h) [µM] | SMILES | level of c-PARP1 relative to control (MCF-7 cells) | relative level of p-Ser129 Akt1 [1, 3] | relative level of p-Ser529 p65 [1, 3] | relative level of p-Ser129 Akt1 [2] | relative level of p-Ser529 p65 ([1]; MCF-7, 24 h treatment, compound at its 72-h EC50, relative to untreated control)
45.1 ± 5.43 | 23.7 ± 3.97 | 32.8 ± 3.25 | CCCCCCCC(=O)OCCCn1cnc2c(Br)c(Br)c(Br)c(Br)c21 [Compound 3c, 3-(4,5,6,7-Tetrabromo-1H-benzimidazol-1-yl)propyl octanoate] | significant increase | 0.19 | 0.17 |  | 
51.4 ± 8.22 | 21.2 ± 2.4 | 22.1 ± 3.18 | CCCCCC(=O)OCCCn1c(C)nc2c(Br)c(Br)c(Br)c(Br)c21 [Compound 6b, (4,5,6,7-Tetrabromo-2-methyl-1H-benzimidazol-1-yl)propyl hexanoate] | ~20 fold |  |  | 0.41 | 0.33
